Where a name gives a salt, the structure may show the parent alone.
tested on: panel of 290 distinct kinases (321 in the larger panel), excluding mutant variants; conditions: asterisk: panel of 321 distinct kinases

SMILES	S35
COCCOc1cc2ncnc(Oc3cccc(NC(=O)Nc4cc(C(F)(F)F)nn4-c4ccc(F)cc4)c3)c2cc1OC [Ex 226, 1-[1-(4-fluorophenyl)-3-(trifluoromethyl)-1H-pyrazol-5-yl]-3-{3-[6-methoxy-7-(2-methoxyethoxy)quinazolin-4-yloxy]phenyl}urea]	C* (0.20 < C ≦ 0.40)
COCCOc1cc2ncnc(Oc3cccc(NC(=O)Nc4cc(C(C)(C)C)nn4C)c3)c2cc1OC [Ex 209, 1-(3-tert-butyl-1-methyl-1H-pyrazol-5-yl)-3-(3-(6-methoxy-7-(2-methoxyethoxy)quinazolin-4-yloxy)phenyl)urea]	C* (0.20 < C ≦ 0.40)
CCOC(=O)Cn1nc(C(C)(C)C)cc1NC(=O)Nc1cccc(Sc2ncnc3cc(OCCOC)c(OC)cc23)c1 [Ex 237, ethyl 2-[3-tert-butyl-5-(3-{3-[6-methoxy-7-(2-methoxyethoxy)quinazolin-4-ylthio]phenyl}ureido)-1H-pyrazol-1-yl]acetate]	C* (0.20 < C ≦ 0.40)
COCCOc1cc2ncnc(Oc3cccc(NC(=O)Nc4cc(C(F)(F)F)nn4-c4ccc(C)cc4)c3)c2cc1OC [Ex 227, 1-{3-[6-methoxy-7-(2-methoxyethoxy)quinazolin-4-yloxy]phenyl}-3-[1-p-tolyl-3-(trifluoromethyl)-1H-pyrazol-5-yl]urea]	C* (0.20 < C ≦ 0.40)
COc1cc2c(Sc3cccc(NC(=O)Nc4ccc(OC)c(C(F)(F)F)c4)c3)ncnc2cc1OCCN1CCOCC1 [Ex 249, 1-(4-methoxy-3-(trifluoromethyl)phenyl)-3-(3-(6-methoxy-7-(2-morpholinoethoxy)quinazolin-4-ylthio)phenyl)urea]	C* (0.20 < C ≦ 0.40)
COCCOc1cc2ncnc(Oc3cccc(NC(=O)Nc4cc(C(C)(F)F)no4)c3)c2cc1OC [Ex 211, 1-(3-(1,1-difluoroethyl)isoxazol-5-yl)-3-(3-(6-methoxy-7-(2-methoxyethoxy)quinazolin-4-yloxy)phenyl)urea]	C* (0.20 < C ≦ 0.40)
COCCOc1cc2ncnc(Oc3cccc(NC(=O)Nc4cc(C5CCCC5)no4)c3)c2cc1OC [Ex 207, 1-(3-cyclopentylisoxazol-5-yl)-3-(3-(6-methoxy-7-(2-methoxyethoxy)quinazolin-4-yloxy)phenyl)urea]	C* (0.20 < C ≦ 0.40)
COCCOc1cc2ncnc(Oc3cccc(NC(=O)Nc4cc(C(C)C)on4)c3)c2cc1OC [Ex 206, 1-(5-isopropylisoxazol-3-yl)-3-(3-(6-methoxy-7-(2-methoxyethoxy)quinazolin-4-yloxy)phenyl)urea]	C* (0.20 < C ≦ 0.40)
COCCOc1cc2ncnc(Sc3cccc(NC(=O)Nc4cc(C(C)(C)F)no4)c3)c2cc1OC [Ex 234, 1-(3-(2-fluoropropan-2-yl)isoxazol-5-yl)-3-(3-(6-methoxy-7-(2-methoxyethoxy)quinazolin-4-ylthio)phenyl)urea]	C* (0.20 < C ≦ 0.40)
CCOC(=O)Cn1nc(C(C)(C)C)cc1NC(=O)Nc1cccc(Oc2ncnc3cc(OCCOC)c(OC)cc23)c1 [Ex 224, ethyl 2-[3-tert-butyl-5-(3-{3-[6-methoxy-7-(2-methoxyethoxy)quinazolin-4-yloxy]phenyl}ureido)-1H-pyrazol-1-yl]acetate hydrochloride]	A* (A ≦ 0.10)
COc1cc2c(Oc3cccc(NC(=O)Nc4ccc(OC)c(C(F)(F)F)c4)c3)ncnc2cc1OCCN1CCOCC1 [Ex 250, 1-(4-methoxy-3-(trifluoromethyl)phenyl)-3-(3-(6-methoxy-7-(2-morpholinoethoxy)quinazolin-4-yloxy)phenyl)urea]	C* (0.20 < C ≦ 0.40)

same assay, conditions: kinase selectivity score, value marked * (larger kinase panel); class symbols

SMILES	S35
COc1cc2ncnc(Oc3cccc(NC(=O)Nc4cc(C5(C(F)(F)F)CC5)nn4-c4ccccc4)c3)c2cc1OC [Ex 137, 1-(3-(6,7-dimethoxyquinazolin-4-yloxy)phenyl)-3-(1-phenyl-3-(1-(trifluoromethyl)cyclopropyl)-1H-pyrazol-5-yl)urea]	D* (D > 0.40)
COc1cc2ncnc(Oc3cccc(NC(=O)Nc4cc(C(C)(C)F)no4)c3)c2cc1OCCCS(C)(=O)=O [Ex 42, 1-(3-(2-fluoropropan-2-yl)isoxazol-5-yl)-3-(3-(7-methoxy-6-(3-(methylsulfonyl)propoxy)quinazolin-4-yloxy)phenyl)urea]	C* (0.20 < C ≦ 0.40)

same assay, conditions: no asterisk: panel of 290 distinct kinases

SMILES	S35
COc1cc2ncnc(Oc3cccc(NC(=O)Nc4cc(C(C)(C)F)no4)c3F)c2cc1OC [Ex 296, 1-(3-(6,7-dimethoxyquinazolin-4-yloxy)-2-fluorophenyl)-3-(3-(2-fluoropropan-2-yl)isoxazol-5-yl)urea]	B (0.10 < B ≦ 0.20)
COc1ccc(-n2nc(C(C)(C)C)cc2NC(=O)Nc2cccc(Oc3ncnc4cc(OC)c(OC)cc34)c2)cc1 [Ex 361, 1-(3-tert-butyl-1-(4-methoxyphenyl)-1H-pyrazol-5-yl)-3-(3-(6,7-dimethoxyquinazolin-4-yloxy)phenyl)urea]	C (0.20 < C ≦ 0.40)
COc1cc2ncnc(Sc3cccc(NC(=O)Nc4cc(C5CCC5)nn4-c4ccccc4)c3)c2cc1OC [Ex 356, 1-(3-cyclobutyl-1-phenyl-1H-pyrazol-5-yl)-3-(3-(6,7-dimethoxyquinazolin-4-ylthio)phenyl)urea]	C (0.20 < C ≦ 0.40)
COc1cc2ncnc(Oc3cccc(NC(=O)Nc4cc(C5(C(F)(F)F)CC5)on4)c3)c2cc1OC [Ex 377, 1-(3-(6,7-dimethoxyquinazolin-4-yloxy)phenyl)-3-(5-(1-(trifluoromethyl)cyclopropyl)isoxazol-3-yl)urea]	C (0.20 < C ≦ 0.40)
COc1cc2ncnc(Oc3cc(NC(=O)Nc4cc(C(C)(C)C(F)(F)F)on4)ccc3F)c2cc1OC [Ex 266, 1-(3-(6,7-dimethoxyquinazolin-4-yloxy)-4-fluorophenyl)-3-(5-(1,1,1-trifluoro-2-methylpropan-2-yl)isoxazol-3-yl)urea]	C (0.20 < C ≦ 0.40)
COc1cc2ncnc(Sc3cccc(NC(=O)Nc4cc(C(C)(C)C)nn4-c4ccc(C)cc4)c3)c2cc1OC [Ex 275, 1-(3-tert-butyl-1-p-tolyl-1H-pyrazol-5-yl)-3-(3-(6,7-dimethoxyquinazolin-4-ylthio)phenyl)urea]	D (D > 0.40)
COc1cc2ncnc(Oc3cccc(NC(=O)Nc4cc(C(C)(C)F)no4)c3)c2cc1O [Ex 258, 1-(3-(2-fluoropropan-2-yl)isoxazol-5-yl)-3-(3-(6-hydroxy-7-methoxyquinazolin-4-yloxy)phenyl)urea]	C (0.20 < C ≦ 0.40)
CCOc1cc2ncnc(Oc3cccc(NC(=O)Nc4cc(C(F)(F)F)nn4-c4ccccc4)c3)c2cc1OC [Example 384, 1-(3-(7-ethoxy-6-methoxyquinazolin-4-yloxy)phenyl)-3-(1-phenyl-3-(trifluoromethyl)-1H-pyrazol-5-yl)urea]	C (0.20 < C ≦ 0.40)
COc1cc2ncnc(Sc3cccc(NC(=O)Nc4cc(C5(C(F)(F)F)CC5)nn4-c4ccccc4)c3)c2cc1OC [Ex 383, 1-(3-(6,7-dimethoxyquinazolin-4-ylthio)phenyl)-3-(1-phenyl-3-(1-(trifluoromethyl)cyclopropyl)-1H-pyrazol-5-yl)urea]	C (0.20 < C ≦ 0.40)
COc1cc2ncnc(Oc3cccc(NC(=O)Nc4cc(C(C)(C)C)nn4-c4ccccc4)c3C)c2cc1OC [Ex 289, 1-(3-tert-butyl-1-phenyl-1H-pyrazol-5-yl)-3-(3-(6,7-dimethoxyquinazolin-4-yloxy)-2-methylphenyl)urea]	C (0.20 < C ≦ 0.40)
COc1cc2ncnc(Oc3cccc(NC(=O)Nc4cc(C(C)(C)C)nn4-c4ccc(C(F)(F)F)cc4)c3)c2cc1OC [Ex 373, 1-(3-tert-butyl-1-(4-(trifluoromethyl)phenyl)-1H-pyrazol-5-yl)-3-(3-(6,7-dimethoxyquinazolin-4-yloxy)phenyl)urea]	C (0.20 < C ≦ 0.40)
CCOc1cc2c(Sc3cccc(NC(=O)Nc4cc(C(C)(CF)CF)on4)c3)ncnc2cc1OC [Ex 395, 1-(5-(1,3-difluoro-2-methylpropan-2-yl)isoxazol-3-yl)-3-(3-(6-ethoxy-7-methoxyquinazolin-4-ylthio)phenyl)urea]	C (0.20 < C ≦ 0.40)
COc1cc2ncnc(Oc3cc(NC(=O)Nc4cc(C(C)(C)F)no4)c(F)cc3F)c2cc1OC [Ex 269, 1-(5-(6,7-dimethoxyquinazolin-4-yloxy)-2,4-difluorophenyl)-3-(3-(2-fluoropropan-2-yl)isoxazol-5-yl)urea]	D (D > 0.40)
COCCOc1cc2ncnc(Sc3cccc(NC(=O)Nc4cc(C(C)(C)C)no4)c3)c2cc1OCCOC [Ex 247, 1-(3-(6,7-bis(2-methoxyethoxy)quinazolin-4-ylthio)phenyl)-3-(3-tert-butylisoxazol-5-yl)urea]	C (0.20 < C ≦ 0.40)
COc1cc2ncnc(Sc3cccc(NC(=O)Nc4cc(C(C)(C)C)nn4-c4cccc(C)c4)c3)c2cc1OC [Ex 286, 1-(3-tert-butyl-1-m-tolyl-1H-pyrazol-5-yl)-3-(3-(6,7-dimethoxyquinazolin-4-ylthio)phenyl)urea]	D (D > 0.40)
COc1cc2ncnc(Oc3cc(NC(=O)Nc4cc(C(F)(F)F)nn4-c4ccccc4)c(F)cc3F)c2cc1OC [Ex 271, 1-(5-(6,7-dimethoxyquinazolin-4-yloxy)-2,4-difluorophenyl)-3-(1-phenyl-3-(trifluoromethyl)-1H-pyrazol-5-yl)urea]	D (D > 0.40)
CCOc1cc2c(Sc3cccc(NC(=O)Nc4cc(C(C)(C)C(F)(F)F)on4)c3)ncnc2cc1OC [Ex 262, 1-(3-(6-ethoxy-7-methoxyquinazolin-4-ylthio)phenyl)-3-(5-(1,1,1-trifluoro-2-methylpropan-2-yl)isoxazol-3-yl)urea]	C (0.20 < C ≦ 0.40)
COc1cc2ncnc(Oc3cccc(NC(=O)Nc4cc(C(C)(C)C)nn4-c4ccccc4F)c3)c2cc1OC [Ex 372, 1-(3-tert-butyl-1-(2-fluorophenyl)-1H-pyrazol-5-yl)-3-(3-(6,7-dimethoxyquinazolin-4-yloxy)phenyl)urea]	D (D > 0.40)
COc1cc2ncnc(Oc3cccc(NC(=O)Nc4cc(C(C)(C)C)nn4-c4ccc(C(C)(C)C)cc4)c3)c2cc1OC [Ex 369, 1-(3-tert-butyl-1-(4-tert-butylphenyl)-1H-pyrazol-5-yl)-3-(3-(6,7-dimethoxyquinazolin-4-yloxy)phenyl)urea]	C (0.20 < C ≦ 0.40)

Source: patent US9730937B2, “RAF kinase modulator compounds and methods of use thereof” (AMBIT BIOSCIENCES CORPORATION, priority 2008, dated 2017)
